Data from ChEMBL document CHEMBL1133175, “QSAR analysis of Delta(8)-THC analogues: relationship of side-chain conformation to cannabinoid receptor affinity and pharmacological potency” (J Med Chem, 2000).

Assays:
[1] = target: T1, Cannabinoid receptor 1 (Homo sapiens, UniProt P21554); assay: Binding affinity against Cannabinoid receptor 1.
[2] = target: T1, Cannabinoid receptor 1; assay: Tested for binding affinity against Cannabinoid receptor 1 (CB1).
[3] = target: T1, Cannabinoid receptor 1; assay: Tested for binding affinity against Cannabinoid receptor 1 (CB1)

T1 sequence (P21554 whole entry): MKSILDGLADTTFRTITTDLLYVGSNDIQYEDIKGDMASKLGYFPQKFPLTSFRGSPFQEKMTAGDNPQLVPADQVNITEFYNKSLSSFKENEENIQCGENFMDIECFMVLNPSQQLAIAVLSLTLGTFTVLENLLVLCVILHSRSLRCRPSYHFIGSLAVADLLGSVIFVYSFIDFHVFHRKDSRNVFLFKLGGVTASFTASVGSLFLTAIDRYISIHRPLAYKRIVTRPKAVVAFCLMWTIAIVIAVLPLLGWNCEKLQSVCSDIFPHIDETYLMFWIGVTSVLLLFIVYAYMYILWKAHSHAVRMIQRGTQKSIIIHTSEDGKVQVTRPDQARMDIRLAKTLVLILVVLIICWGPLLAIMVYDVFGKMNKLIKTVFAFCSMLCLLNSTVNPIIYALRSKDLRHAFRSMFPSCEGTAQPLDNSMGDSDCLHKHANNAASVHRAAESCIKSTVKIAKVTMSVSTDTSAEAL

How did the Kd [1] turn out when `CCCCCC#CCc1cc(OC)c2c(c1)OC(C)(C)C1CC=C(C)CC21` (stereo not given) was run?
Its Kd is 0.189 µM.

Which Kd [2] does the source give for `CC1=CCC2C(C1)c1c(O)cc(C/C=C/CCCO)cc1OC2(C)C` (stereo not given) here?
Its Kd is 0.0537 µM.

How did the Kd [1] turn out when `CC1=CCC2C(C1)c1c(O)cc(C/C=C/CCCC#N)cc1OC2(C)C` (stereo in doubt; 29) was run?
The Kd was 0.00077 µM.

How did the Kd [1] turn out when `CCC/C=C/CCCc1cc(O)c2c(c1)OC(C)(C)C1CC=C(C)CC21` (stereo not given) was run?
Its Kd is 0.011 µM.

For `CC1=CCC2C(C1)c1c(O)cc(CC#CCCCBr)cc1OC2(C)C` (stereo not given), which Kd [1] is on record?
The Kd was 0.0012 µM.

How did the Kd [3] turn out when `C#CCCCC#CCc1cc(O)c2c(c1)OC(C)(C)C1CC=C(C)CC21` (stereo not given) was run?
Its Kd is 0.0047 µM.

`C#CCCc1cc(O)c2c(c1)OC(C)(C)C1CC=C(C)CC21` (stereo not given) was tested. Which Kd [1] did it give?
Its Kd is 0.367 µM.

For `CC1=CCC2C(C1)c1c(O)cc(C#CCCCC#N)cc1OC2(C)C` (stereo not given), which Kd [1] is on record?
The Kd was 0.104 µM.

For `CC1=CCC2C(C1)c1c(O)cc(C/C=C/CCCF)cc1OC2(C)C` (stereo not given), which Kd [2] is on record?
The Kd was 0.0209 µM.

How did the Kd [1] turn out when `COC(=O)C#CCc1cc(O)c2c(c1)OC(C)(C)C1CC=C(C)CC21` (stereo not given) was run?
The Kd was 0.731 µM.

How did the Kd [1] turn out when `COC(=O)C#CCCc1cc(O)c2c(c1)OC(C)(C)C1CC=C(C)CC21` (stereo not given) was run?
The Kd was > 10 µM.

`CC1=CCC2C(C1)c1c(O)cccc1OC2(C)C` (stereo not given) was tested. Which Kd [1] did it give?
Its Kd is 0.045 µM.

With `CCCC/C=C/CCc1cc(O)c2c(c1)OC(C)(C)C1CC=C(C)CC21` (stereo not given) as the compound, how does the Kd [1] read?
Its Kd is 0.00336 µM.

With `CCCCCC#Cc1cc(O)c2c(c1)OC(C)(C)C1CC=C(C)CC21` (stereo not given) as the compound, how does the Kd [2] read?
The Kd was 0.036 µM.

With `CC1=CCC2C(C1)c1c(O)cc(CC#CCCO)cc1OC2(C)C` (stereo not given) as the compound, how does the Kd [2] read?
Its Kd is 0.448 µM.

How did the Kd [1] turn out when `CCCCC/C=C/Cc1cc(O)c2c(c1)OC(C)(C)C1CC=C(C)CC21` (stereo not given) was run?
The Kd was 0.00319 µM.

Which Kd [1] does the source give for `CC1=CCC2C(C1)c1c(O)cc(CC#CCBr)cc1OC2(C)C` (stereo not given) here?
Its Kd is 0.143 µM.

Which Kd [1] does the source give for `CC1=CCC2C(C1)c1c(O)cc(C/C=C/CCCBr)cc1OC2(C)C` (stereo not given) here?
Its Kd is 0.00166 µM.

Which Kd [1] does the source give for `CC1=CCC2C(C1)c1c(O)cc(CC#CCCC#N)cc1OC2(C)C` (stereo not given) here?
The Kd was 0.031 µM.

How did the Kd [2] turn out when `COCCC/C=C/Cc1cc(O)c2c(c1)OC(C)(C)C1CC=C(C)CC21` (stereo not given) was run?
Its Kd is 0.0115 µM.

With `C#CCCCC#Cc1cc(O)c2c(c1)OC(C)(C)C1CC=C(C)CC21` (stereo not given) as the compound, how does the Kd [1] read?
Its Kd is 0.46 µM.

Which Kd [2] does the source give for `CC(=O)NCCC#CCc1cc(O)c2c(c1)OC(C)(C)C1CC=C(C)CC21` (stereo not given) here?
Its Kd is 0.307 µM.

`CCCC#CCCCc1cc(O)c2c(c1)OC(C)(C)C1CC=C(C)CC21` (stereo not given) was tested. Which Kd [1] did it give?
The Kd was 0.019 µM.

How did the Kd [1] turn out when `CCCC#CCc1cc(O)c2c(c1)OC(C)(C)C1CC=C(C)CC21` (stereo not given) was run?
The Kd was 0.011 µM.

Which Kd [2] does the source give for `CC(=O)NCCC/C=C/Cc1cc(O)c2c(c1)OC(C)(C)C1CC=C(C)CC21` (stereo not given) here?
Its Kd is 0.0167 µM.

With `CCCCC#CCCc1cc(O)c2c(c1)OC(C)(C)C1CC=C(C)CC21` (stereo not given) as the compound, how does the Kd [1] read?
The Kd was 0.009 µM.

`CC1=CCC2C(C1)c1c(O)cc(CC#CCCC[N+](=O)[O-])cc1OC2(C)C` (stereo not given) was tested. Which Kd [1] did it give?
The Kd was 0.00534 µM.

With `CC1=CCC2C(C1)c1c(O)cc(C/C=C/CCCC[N+](=O)[O-])cc1OC2(C)C` (stereo not given) as the compound, how does the Kd [2] read?
Its Kd is 0.00356 µM.

For `CC1=CCC2C(C1)c1c(O)cc(C/C=C/CCCC#N)cc1OC2(C)C` (stereo in doubt; 30), which Kd [1] is on record?
The Kd was 0.00125 µM.

With `CCCCCCC#CCc1cc(O)c2c(c1)OC(C)(C)C1CC=C(C)CC21` (stereo not given) as the compound, how does the Kd [1] read?
Its Kd is 0.0037 µM.

For `CC1=CCC2C(C1)c1c(O)cc(C=C=CCCCC(=O)O)cc1OC2(C)C` (stereo not given), which Kd [1] is on record?
The Kd was 3.17 µM.

`CCCCCCC(C)(C)c1cc(O)c2c(c1)OC(C)(C)C1CC=C(C)CC21` (stereo not given) was tested. Which Kd [2] did it give?
The Kd was 0.00077 µM.

With `CCCCCC#CCc1cc(O)c2c(c1)OC(C)(C)C1CC=C(C)CC21` (stereo not given) as the compound, how does the Kd [3] read?
Its Kd is 0.0049 µM.

Which Kd [2] does the source give for `CC1=CCC2C(C1)c1c(O)cc(CC#CC(C)Br)cc1OC2(C)C` (stereo not given) here?
The Kd was 0.025 µM.

How did the Kd [1] turn out when `CCCCC/C=C/c1cc(O)c2c(c1)OC(C)(C)C1CC=C(C)CC21` (stereo not given) was run?
Its Kd is 0.00086 µM.
